According to patent publication US20240287138A1, “CYCLIC PEPTIDES FOR INHIBITING TNF RECEPTOR 1 ACTIVITY” (Merck Sharp & Dohme LLC, priority 2023, published 2024):
Numbered stars: 1 amine (or outer) side, 2 acyl side, 3 side chain; on linkers, the order of the positions; unused ones are H or OH. Bridge positions count the residues as written; N and C are the ends. Square brackets hold non-standard residues; d marks the D form. Peptide text beside a SMILES is read from it. Trp(βS-Me,7-OMe) = COc1cccc2c([C@H](C)[C@H](N)C(=O)O)c[nH]c12; X5 = COc1cccc2[nH]cc([C@H](C)[C@H](N[*:1])C(=O)[*:2])c12; Phe(4-CH2COOH) = N[C@@H](Cc1ccc(CC(=O)O)cc1)C(=O)O; Trp(7-CN) = N#Cc1cccc2c(C[C@H](N)C(=O)O)c[nH]c12; Trp(7-Cl) = N[C@@H](Cc1c[nH]c2c(Cl)cccc12)C(=O)O; Phe(3-CONH2) = NC(=O)c1cccc(C[C@H](N)C(=O)O)c1; Phe(4-CONH2) = NC(=O)c1ccc(C[C@H](N)C(=O)O)cc1; Phe(4-COOH) = N[C@@H](Cc1ccc(C(=O)O)cc1)C(=O)O; Trp(7-aza) = N[C@@H](Cc1c[nH]c2ncccc12)C(=O)O; Phe(4-CH2NH2) = NCc1ccc(C[C@H](N)C(=O)O)cc1; Pip(5R-OH) = O=C(O)[C@@H]1CC[C@@H](O)CN1; αMeW = C[C@](N)(Cc1c[nH]c2ccccc12)C(=O)O; X1 = O=C([C@@H]1CC[C@H](N[*:1])C1)[*:2]; Pip(4-aza) = O=C(O)[C@@H]1CNCCN1; 4Pal = N[C@@H](Cc1ccncc1)C(=O)O; NMeE = CN[C@@H](CCC(=O)O)C(=O)O; dHyp = O=C(O)[C@H]1C[C@H](O)CN1; Ahp(2) = CCCCC[C@H](N)C(=O)O; NMeS = CN[C@@H](CO)C(=O)O; Pip = O=C(O)[C@@H]1CCCCN1; αMeS = C[C@](N)(CO)C(=O)O; Nle = CCCC[C@H](N)C(=O)O; Sar = CNCC(=O)O

Legend:
[1] = target: T1, human TNFR1 extracellular domain (ECD) protein (Homo sapiens, UniProt P19438); test: SPR binding affinity to captured human TNFR1 ECD
T1 construct: HRV 3C protease cleavage site (C); 6His (C, cleaved yes); made in house; host or cells: Sf21 insect cells (baculovirus), secreted
T1 sequence (P19438 30-211): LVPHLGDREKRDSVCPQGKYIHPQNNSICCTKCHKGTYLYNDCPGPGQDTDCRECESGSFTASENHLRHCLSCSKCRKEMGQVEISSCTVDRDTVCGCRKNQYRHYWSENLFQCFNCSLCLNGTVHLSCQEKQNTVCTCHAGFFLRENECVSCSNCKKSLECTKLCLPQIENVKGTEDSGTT
Summary of the method: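 Biotinylated human TNFR1 or TNFR2 ECD (C-terminal Avi-tag, Sf21-expressed) captured on a regenerable streptavidin chip; peptide analytes flowed in 10 mM HEPES pH 7.4, 150 mM NaCl, 3 mM EDTA, 0.05% P20, 2% DMSO. kon and koff measured; affinity calculated from the rate constants.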

[2] = target: T2, TNFα-induced NF-κB signal transduction pathway (TNFR1 signaling) in THP-1 cells (Homo sapiens, UniProt P19438); test: THP-1 Lucia NF-κB reporter cell assay, inhibition of TNFα-induced NF-κB signaling; type: cell-based; details: THP-1 NF-κB Lucia reporter cells, 10 ng/mL TNFα, 16-18 h, secreted luciferase; read-out: THP-1 IC50
T2 sequence (P19438 30-455): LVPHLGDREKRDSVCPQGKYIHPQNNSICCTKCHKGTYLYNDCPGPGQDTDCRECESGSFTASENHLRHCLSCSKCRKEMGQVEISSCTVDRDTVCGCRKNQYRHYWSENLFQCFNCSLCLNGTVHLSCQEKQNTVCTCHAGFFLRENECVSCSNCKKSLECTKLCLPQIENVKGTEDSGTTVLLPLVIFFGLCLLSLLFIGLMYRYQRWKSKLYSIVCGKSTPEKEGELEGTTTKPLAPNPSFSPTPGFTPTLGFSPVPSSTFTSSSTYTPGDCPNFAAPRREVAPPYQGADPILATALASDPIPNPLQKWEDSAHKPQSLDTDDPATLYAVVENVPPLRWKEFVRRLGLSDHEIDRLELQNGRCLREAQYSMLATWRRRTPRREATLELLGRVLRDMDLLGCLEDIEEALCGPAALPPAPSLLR
Summary of the method: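 Read-out: secreted Lucia luciferase luminescence (QUANTI-Luc) from supernatant after 16-18 h, 37 °C, 10 ng/mL rhTNFα. Peptide pretreatment 1 h at 37 °C; 20,000 cells/well, selection antibiotics omitted. IC50 via 4-parameter logistic model against min/max controls.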

| Compound | Kd [1] | IC50 [2] |
| --- | --- | --- |
| CCCCC[C@@H]1NC(=O)[C@@H]2CC[C@@H](C2)NC(=O)[C@H]([C@@H](C)c2c[nH]c3c(OC)cccc23)NC(=O)CN(C)C(=O)[C@H](Cc2ccc(OC)cc2)NC(=O)[C@H](Cc2ccc(C(N)=O)cc2)NC(=O)[C@](C)(CO)NC(=O)[C@H](Cc2c[nH]c3c(C#N)cccc23)NC(=O)[C@H](Cc2ccncc2)NC(=O)[C@H](CC(N)=O)NC(=O)[C@H]2C[C@H](O)CN2C(=O)[C@H](Cc2c[nH]c3ccccc23)NC(=O)[C@@H]2CNCCN2C(=O)[C@H](Cc2ccncc2)NC1=O [SEQ ID NO. 200] (cyclo([4Pal][Trp(7-CN)][αMeS][Phe(4-CONH2)]Y(Me)[Sar][Trp(βS-Me,7-OMe)][X1][Ahp(2)][4Pal][Pip(4-aza)]W[dHyp]N)) | 0.02 nM | 1 nM |
| CCCC[C@@H]1NC(=O)CSC[C@@H](C(N)=O)NC(=O)[C@H]([C@@H](C)c2c[nH]c3c(OC)cccc23)NC(=O)CN(C)C(=O)[C@H](Cc2ccc(O)cc2)NC(=O)[C@H](Cc2ccc(C(=O)O)cc2)NC(=O)[C@](C)(CO)NC(=O)[C@H](Cc2c[nH]c3c(Cl)cccc23)NC(=O)[C@H](Cc2ccncc2)NC(=O)[C@H](CC(N)=O)NC(=O)[C@H]2CCCN2C(=O)[C@H](Cc2c[nH]c3ccccc23)NC(=O)[C@@H]2CC[C@@H](O)CN2C(=O)[C@H](Cc2ccncc2)NC1=O [SEQ ID NO. 203] ({CH2CO}-[Nle][4Pal][Pip(5R-OH)]W[dP]N[4Pal][Trp(7-Cl)][αMeS][Phe(4-COOH)]Y[Sar][Trp(βS-Me,7-OMe)]C-NH2; thioether N-14) | 0.1 nM | 1.6 nM |
| CCCC[C@@H]1NC(=O)CSC[C@@H](C(N)=O)NC(=O)[C@](C)(Cc2c[nH]c3ccccc23)NC(=O)CN(C)C(=O)[C@H](Cc2ccc(O)cc2)NC(=O)[C@H](Cc2cccc(C(N)=O)c2)NC(=O)[C@](C)(CO)NC(=O)[C@H](Cc2c[nH]c3c(Cl)cccc23)NC(=O)[C@H](Cc2ccncc2)NC(=O)[C@H](CC(N)=O)NC(=O)[C@H](CCC(=O)O)N(C)C(=O)[C@H](Cc2c[nH]c3ncccc23)NC(=O)[C@H](CO)NC(=O)[C@H](Cc2ccc(CN)cc2)NC1=O [SEQ ID NO. 205] ({CH2CO}-[Nle][Phe(4-CH2NH2)]S[Trp(7-aza)][NMeE]N[4Pal][Trp(7-Cl)][αMeS][Phe(3-CONH2)]Y[Sar][αMeW]C-NH2; thioether N-14) | 0.6 nM | 7.2 nM |
| CCCC[C@@H]1NC(=O)CSC[C@@H](C(N)=O)NC(=O)[C@H]([C@@H](C)c2c[nH]c3cccc(OC)c23)NC(=O)CN(C)C(=O)[C@H](Cc2ccc(O)cc2)NC(=O)[C@H](Cc2ccc(C(N)=O)cc2)NC(=O)[C@](C)(CO)NC(=O)[C@H](Cc2c[nH]c3c(Cl)cccc23)NC(=O)[C@H](Cc2ccc(C(=O)O)cc2)NC(=O)[C@H](CC(N)=O)NC(=O)[C@H](CCC(=O)O)N(C)C(=O)[C@H](Cc2c[nH]c3ncccc23)NC(=O)[C@H](CO)N(C)C(=O)[C@H](Cc2ccncc2)NC1=O [SEQ ID NO. 209] ({CH2CO}-[Nle][4Pal][NMeS][Trp(7-aza)][NMeE]N[Phe(4-COOH)][Trp(7-Cl)][αMeS][Phe(4-CONH2)]Y[Sar][X5]C-NH2; thioether N-14) | 0.4 nM | 2.7 nM |
| CCCC[C@@H]1NC(=O)CSC[C@@H](C(N)=O)NC(=O)[C@H]([C@@H](C)c2c[nH]c3c(OC)cccc23)NC(=O)CN(C)C(=O)[C@H](Cc2ccc(O)cc2)NC(=O)[C@H](Cc2ccc(C(=O)O)cc2)NC(=O)[C@](C)(CO)NC(=O)[C@H](Cc2c[nH]c3c(Cl)cccc23)NC(=O)[C@H](Cc2ccc(CC(=O)O)cc2)NC(=O)[C@H](CC(N)=O)NC(=O)[C@H](CCC(=O)O)N(C)C(=O)[C@H](Cc2c[nH]c3ccccc23)NC(=O)[C@@H]2CCCCN2C(=O)[C@H](Cc2ccncc2)NC1=O [SEQ ID NO. 212] ({CH2CO}-[Nle][4Pal][Pip]W[NMeE]N[Phe(4-CH2COOH)][Trp(7-Cl)][αMeS][Phe(4-COOH)]Y[Sar][Trp(βS-Me,7-OMe)]C-NH2; thioether N-14) | 0.5 nM | 2.8 nM |
